Experimental data taken from patent US20260257993A1, “COMPOUND, RUBBER BLEND CONTAINING THE COMPOUND, VEHICLE TIRE COMPRISING THE RUBBER BLEND IN AT LEAST ONE COMPONENT, PROCESS FOR PRODUCING THE COMPOUND, AND USE OF THE COMPOUND AS AN AGEING PROTECTANT AND/OR ANTIOZONANT AND/OR DYE” (Continental Reifen Deutschland GmbH, priority 2021, published 2026).

Experiment: Measurement of oxidation induction time (OIT) by DSC
Conditions: with liquid polyisoprene LIR-50, isothermal 180° C., O2 atmosphere 50 mL/min, DSC peak
Description: The compounds of formula II) and III) were investigated under laboratory conditions for their potential protective effect as aging stabilizers by measurement of the oxidation induction time.
To this end the compounds of formula II) and III) and 6-PPD in each case together with a polymer (liquid synthetic polyisoprene (IR), LIR-50, Kuraray, weight average molecular weight distribution Mw=54 000 g/mol, glass transition temperature Tg=−63° C.) were heated at constant temperature (180° C.) until onset of oxidation (start temperature 35° C., heating to 170° C. at a heating rate of 20 K/min (kelvin per minute), heating to 180° C. at a heating rate of 1 K/min; purge gas: nitrogen (N2), volume flow 50 mL/min). The specimen was isothermally maintained for 5 minutes at 180° C. under an N2 atmosphere and the atmosphere was then switched to an 02 atmosphere (volume flow 50 mL/min).
Oxidation was determined via a peak using DSC (differential scanning calorimetry).
The time in minutes to oxidation was measured.

SMILES | Oxidation induction time: time to oxidation
CC(C)CC(C)Nc1ccc(Nc2ccccc2)cc1 (stereo not drawn) [6-PPD, N-(1,3-dimethylbutyl)-N′-phenyl-p-phenylenediamine, reference compound] | 116 ± 10 min
CC(C)CC(C)Nc1ccc2[nH]c(-c3ccccc3)cc2c1 (stereo not drawn) [formula II), 2-phenyl-5-(1,3-dimethylbutylamino)-1H-indole] | 105 ± 10 min
CC(C)CC(C)Nc1ccc2[nH]c(C3CCCCC3)cc2c1 (stereo not drawn) [formula III), 2-cyclohexyl-5-(1,3-dimethylbutylamino)-1H-indole] | 205 ± 10 min
